# Source: US20050143357A1 (priority 2002, published 2005)
# Key:
# [1] = tested on: upstream regulatory portion of the VDUP-1; experiment: VDUP-1 regulatory region luciferase reporter assay in transiently transfected LNCaP cells; format: cell-based, human; conditions: VDUP-1 regulatory portion fused to luceferase gene, different time points, luminometer
# Experimental: A human cell line, LNCaP was transiently transfected with a DNA vector composed of the upstream regulatory portion of the VDUP-1 fused to the gene encoding luceferase. The procedures to carry out transfection were essentially as described in example 2. At different time points a steroid with androgen properties, exemplified as R1881, were added to cell cultures, as was calcitriol (vitamin D). At different time points, luciferace activity in cell extracts was measured using a luminometer. The outcome of this experiment was that the level of luceferase was decreased by the steroid and was increased by vitamin D.
# [2] = tested on: 5 α-reduotase; conditions: once it enters prostate cells, by 5 α-reduotase; cited from earlier work
Structure (SMILES),level of luceferase (luciferace activity in cell extracts) [1],fraction converted to dihydrotestosterone (DHT) [2]
C[C@]1(O)CC[C@H]2[C@@H]3CCC4=CC(=O)CCC4=C3C=C[C@@]21C [R1881],decreased,–
C[C@]12CC[C@H]3[C@@H](CCC4=CC(=O)CC[C@@]43C)[C@@H]1CC[C@@H]2O [Testosterone],–,about 90%
C=C1/C(=C\C=C2/CCC[C@]3(C)[C@@H]([C@H](C)CCCC(C)(C)O)CC[C@@H]23)C[C@@H](O)C[C@@H]1O [calcitriol],increased,–
